Laboratory results from patent publication US20060094763A1, “Polymorphic forms of 6-[2-(methylcarbomoyl) phenyl sulfanyl]-3-E-[2-(pyridin-2-yl)ethenyl]indazole” (Agouron Pharmaceuticals, Inc., priority 2004, published 2006).
Values after ≈ are worked out from the molar mass of the structure shown. Blank lines part the entries; values can stand above or below the compound they belong to.

What was measured:
[1] = Aqueous solubility of polymorphic forms of Compound 1; format: physicochemical; conditions: for solubility: aqueous medium
[2] = Physical and chemical storage stability of polymorphic forms (heat, humidity); conditions: for Time stable: 40° C. under 75% relative humidity
[3] = Human metabolites of Compound 1; conditions: in vivo
From the text: The chemical structures of three oxygenated metabolites, M12 (the sulfoxide of Compound 1), M15 (the sulfone of Compound 1) and M9 (a mixed sulfoxidized/N-oxidized product of Compound 1), were confirmed based on the comparison in chromatographic retention times and mass spectra of the in-vivo metabolites to their authentic reference standards. The chemical structure of the glucuronide (M7) of Compound 1 was confirmed by the isolation of the metabolite followed by NMR determination. […] The proposed structures (or elemental compositions) of M5 and its major fragment ions (m/z 342, 311, 265, and 237) were all highly consistent with the elemental compositions determined by accurate mass measurement (with mass measurement accuracy ≦1.2 ppm for all). The definitive structures of metabolites M8a, M12a and M14 are currently unknown.

[4] = Salt screening: solubility of in situ acid salts of Compound 1 in 100 mM acid solutions (HPLC); conditions: 100 mM acid solution, excess solid
Experimental: To ensure that the maximum solubility level was reached, the samples were checked periodically to ensure that excess solid was present. After 8 days 400 μL of the mixture was removed and centrifuged at 14,000 rpm for 5 minutes. 100 μL of the supernatant was then removed, diluted with 900 μL of a 1:1 mixture of acetonitrile/methanol, and then analyzed by HPLC.

- solubility ([1]; pH 1, simulated gastric fluid, pH 1): ~550 µg/mL (≈ 1420 µM)
- solubility ([1]; pH 4, aqueous buffer, pH 4): ~6 µg/mL (≈ 15.5 µM)
- solubility ([1]; pH 8, aqueous buffer, pH 8): ~2 µg/mL (≈ 5.17 µM)
- Aqueous solubility ([1]; pH 2): about 157 μg/mL
- Aqueous solubility ([1]; pH 6.5): about 2 μg/mL
- Time stable [2]: at least 30 days
- Time physically and chemically stable ([2]; 80° C.): at least 30 days
Compound: CNC(=O)c1ccccc1Sc1ccc2c(/C=C/c3ccccn3)n[nH]c2c1 [Form IV, 6-[2-(methylcarbamoyl)phenylsulfanyl]-3-E-[2-(pyridin-2-yl)ethenyl]indazole]

- solubility ([1]; pH 2, simulated gastric fluid, pH 2): 179 µg/mL (≈ 463 µM)
- Aqueous solubility ([1]; pH 6.5): 9 µg/mL
- Time stable [2]: at least 13 days
- Chemical stability ([2]; 80° C.): chemically stable
Compound: CNC(=O)c1ccccc1Sc1ccc2c(/C=C/c3ccccn3)n[nH]c2c1 [Form I, 6-[2-(methylcarbamoyl)phenylsulfanyl]-3-E-[2-(pyridin-2-yl)ethenyl]indazole]

- Metabolism in humans [3]: extensive metabolism
Compound: CNC(=O)c1ccccc1Sc1ccc2c(/C=C/c3ccccn3)n[nH]c2c1 [Compound 1, 6-[2-(methylcarbamoyl)phenylsulfanyl]-3-E-[2-(pyridin-2-yl)ethenyl]indazole]

Compound: Benzene sulfonic acid
- Solubility 8 days ([4]; stirred 8 days in the dark): 10 µg/mL
- Solubility 14 days ([4]; stirred 14 days in the dark): 11 µg/mL
